The record followed here is patent US5338733A, “Isoxazolidinyl carbapenem derivative” (Shionogi Seiyaku Kabushiki Kaisha, priority 1992, dated 1994).

In data set [1] the test system is Staphylococcus aureus 209P. The experiment in a line: MIC, Staphylococcus aureus 209P. The class given is cell-based. As to conditions: read-out: MIC (Minimal Inhibitory Concentration). Here is the method: (§1) The carbapenem compounds obtained in Examples 3, 5 and 8 were evaluated for antimicrobial activity, the integrated value of a concentration in blood (Area Under the Curve: AUC), recovery from urine and decomposition by human kidney dehydropeptidase-1 by using imipenem, meropenem and cephalosporin derivatives (A) and (B) as controls.
(§2) 1) MIC (Minimal Inhibitory Concentration) (γ/ml):
(§3) Antimicrobial activity was evaluated by using MIC.

A further data set relates to Entercoccus SR1004. The experiment in a line: MIC, Entercoccus SR1004. As to conditions: read-out: MIC (Minimal Inhibitory Concentration). The class given is cell-based. On the procedure: as §1, §2, §3
Data set [2] relates to Pseudomonas aeruginosa SR1012. The data set can be described thus: MIC, Pseudomonas aeruginosa SR1012. The class given is cell-based. On the procedure: as §1, §2, §3
Data set [3] is described as follows: in vivo. As to conditions: mouse, iv. On the procedure: as §1
2) Concentration in Blood (γ/ml):
Each compound was intravenously injected into a mouse, and the concentration in the blood 15 minutes after the injection was measured.
3) Recovery from Urine (%):
Each compound was intravenously injected into a mouse and a monkey, and the content in the urine 24 hours after the injection was measured. A rate of recovery was obtained from the content.

Data set [4] in a line: in vivo. As to conditions: monkey, iv.
The next data set is described as follows: in vitro. It counts as in vitro ADME, human. As to conditions: human, kidney dehydropeptidase-1. On the procedure:
as §1

Data set [5] relates to human kidney dehydropeptidase-1. The experiment in a line: in vitro. It counts as in vitro ADME. On the procedure:
as §1

The test system of data set [6] is Gram-positive bacteria and Gram-negative bacteria. The data set can be described thus: Antimicrobial activity against Gram-positive and Gram-negative bacteria (overall). It counts as cell-based. As to conditions: as compared with imipenem, meropenem and cephalosporin derivatives (A) and (B); in words. Here is the method: as §1, §2, §3
The mark [7] stands for this setting: Pseudomonas aeruginosa SR1012, read-out: MIC (Minimal Inhibitory Concentration).

In brackets after ≈: the same amount, converted by molar mass. Structures can show the parent of a compound that is named as a salt. Where two headings read alike, the source gives them in different places.

On to `CN1CCC(C2=C(C(=O)O)N3C(=O)C(NC(=O)C(=NO)c4csc(N)n4)C3SC2)O1` (stereo not drawn) [Cephalosporin (A)], for which, in data set [1] (Staphylococcus aureus 209P), the MIC came to 0.78 µg/mL (≈ 1.72 µM).

`C[N+]1(C)CCC(C2=C(C(=O)[O-])N3C(=O)C(NC(=O)C(=NO)c4csc(N)n4)C3SC2)O1` (stereo not drawn) [Cephalosporin (B)]: the MIC in data set [1] (Staphylococcus aureus 209P) was determined as 0.2 µg/mL (≈ 0.427 µM).

For `C[C@H]1C([C@H]2CC[N+](C)(C)O2)=C(C(=O)[O-])N2C(=O)[C@H]([C@@H](C)O)C12` (stereo partly drawn) [Example 3, (1S,6S)-6-((R)-1-hydroxyethyl)-2-((5R)-2,2-dimethylisoxazolidinio-5-yl)-1-methyl-1-carba-2-penem-3-carboxylate], the MIC in data set [1] (Staphylococcus aureus 209P) worked out at 0.0125 µg/mL (≈ 0.0403 µM); with Entercoccus SR1004 (Entercoccus SR1004), 0.78 µg/mL (≈ 2.51 µM); in data set [2] (setting [7]) it was 0.78 µg/mL (≈ 2.51 µM). For the same compound, the AUC – broadly, the area under the concentration-time curve, a measure of exposure – in the data set “in vivo [3]” is 19000 ng·h/mL; in “in vivo [4]”, 35200 ng·h/mL. In the data set “in vivo [3]”, this compound came in with a concentration at 0.25 h of 36300 ng/mL. Further, the metabolised in “in vitro” came out at 97%. In data set [5], the “hydrolysis rate in the body” value is listed as “low hydrolysis rate”. Also, the “antimicrobial activity against Gram-positive bacteria and Gram-negative bacteria” value (“antimicrobial activity” below) in data set [6] is given as “excellent antimicrobial activity”.

`C[C@H]1C([C@@H]2CC[N+](C)(C)O2)=C(C(=O)[O-])N2C(=O)[C@H]([C@@H](C)O)C12` (stereo partly drawn) [Example 5, (1S,6S)-6-((R)-1-hydroxyethyl)-2-((5S)-2,2-dimethylisoxazolidinio-5-yl)-1-methyl-1-carba-2-penem-3-carboxylate]: the figures for the MIC (in data set [1] (Staphylococcus aureus 209P); in the data set on Entercoccus SR1004 (Entercoccus SR1004); in data set [2] (setting [7])) were 0.0125 µg/mL (≈ 0.0403 µM), 0.78 µg/mL (≈ 2.51 µM) and 1.56 µg/mL (≈ 5.03 µM), respectively. Also, the “hydrolysis rate in the body” value in data set [5] was “low hydrolysis rate”. Besides, the “antimicrobial activity” value in data set [6] is listed as “excellent antimicrobial activity”.

With `C[C@H]1C([C@@H]2CCN(C)O2)=C(C(=O)O)N2C(=O)[C@H]([C@@H](C)O)C12` (stereo partly drawn) [Example 8, sodium (1S,6S)-6-((R)-l-hydroxyethyl)-1-methyl-2-((5S)-2-methylisoxazolidine-5-yl)-1-carba-2-penem-3-carboxylate salt], the MIC in data set [1] (Staphylococcus aureus 209P) is 0.1 µg/mL. Besides, in data set [5], the “hydrolysis rate in the body” value is recorded as “low hydrolysis rate”. For the same compound, the “antimicrobial activity” value in data set [6] was “excellent antimicrobial activity”.

As to `C[C@@H](O)[C@H]1C(=O)N2C(C(=O)O)=C(SCCN=CN)C[C@H]12` [Imipenen, imipenem], the MIC in data set [1] (Staphylococcus aureus, 209P) came to 0.0125 µg/mL (≈ 0.0418 µM); in the data set on Entercoccus SR1004 it was 1.56 µg/mL (≈ 5.21 µM); in data set [2] (Pseudomonas aeruginosa, SR1012, read-out: MIC (Minimal Inhibitory Concentration)), 1.56 µg/mL (≈ 5.21 µM). The AUC was 8800 ng·h/mL in the data set “in vivo [3]” and 13300 ng·h/mL in “in vivo [4]”. The compound also registered a concentration at 0.25 h in “in vivo [3]” of 20600 ng/mL. Also, the metabolised in “in vitro” was determined as 73%.

For the compound `C[C@@H](O)[C@H]1C(=O)N2C(C(=O)O)=C(S[C@@H]3CN[C@H](C(=O)N(C)C)C3)[C@H](C)[C@H]12` [Meropenen, meropenem], the MIC in data set [1] (Staphylococcus aureus 209P) is 0.1 µg/mL (≈ 0.261 µM); with Entercoccus SR1004 (Entercoccus SR1004), 6.25 µg/mL (≈ 16.3 µM); in data set [2] (setting [7]), 0.78 µg/mL (≈ 2.03 µM). Also, the figures for the AUC in the data set “in vivo [3]” and in “in vivo [4]” were 5200 ng·h/mL and 17200 ng·h/mL, respectively. The same compound displayed a concentration at 0.25 h in “in vivo [3]” of 13700 ng/mL. The compound also registered a metabolised in “in vitro” of 87%.
